Data: ChEMBL document CHEMBL3120081, “Imidazopyridazine hepatitis C virus polymerase inhibitors. Structure-activity relationship studies and the discovery of a novel, traceless prodrug mechanism” (J Med Chem, 2014)
Converted amounts (≈) assume the structure as drawn. One block for each compound: values may come before it.

Key:
[1] = AUC in CD rat at 5 mg/kg by LC/MS/MS analysis; type: ADME, organism-based; design: dose 5 mg/kg; conditions: plasma
[2] = biological target: T1, Voltage-gated inwardly rectifying potassium channel KCNH2 (Homo sapiens, UniProt Q12809); experiment: Inhibition of human ERG by patch-clamp technique
T1 sequence (Q12809 whole entry): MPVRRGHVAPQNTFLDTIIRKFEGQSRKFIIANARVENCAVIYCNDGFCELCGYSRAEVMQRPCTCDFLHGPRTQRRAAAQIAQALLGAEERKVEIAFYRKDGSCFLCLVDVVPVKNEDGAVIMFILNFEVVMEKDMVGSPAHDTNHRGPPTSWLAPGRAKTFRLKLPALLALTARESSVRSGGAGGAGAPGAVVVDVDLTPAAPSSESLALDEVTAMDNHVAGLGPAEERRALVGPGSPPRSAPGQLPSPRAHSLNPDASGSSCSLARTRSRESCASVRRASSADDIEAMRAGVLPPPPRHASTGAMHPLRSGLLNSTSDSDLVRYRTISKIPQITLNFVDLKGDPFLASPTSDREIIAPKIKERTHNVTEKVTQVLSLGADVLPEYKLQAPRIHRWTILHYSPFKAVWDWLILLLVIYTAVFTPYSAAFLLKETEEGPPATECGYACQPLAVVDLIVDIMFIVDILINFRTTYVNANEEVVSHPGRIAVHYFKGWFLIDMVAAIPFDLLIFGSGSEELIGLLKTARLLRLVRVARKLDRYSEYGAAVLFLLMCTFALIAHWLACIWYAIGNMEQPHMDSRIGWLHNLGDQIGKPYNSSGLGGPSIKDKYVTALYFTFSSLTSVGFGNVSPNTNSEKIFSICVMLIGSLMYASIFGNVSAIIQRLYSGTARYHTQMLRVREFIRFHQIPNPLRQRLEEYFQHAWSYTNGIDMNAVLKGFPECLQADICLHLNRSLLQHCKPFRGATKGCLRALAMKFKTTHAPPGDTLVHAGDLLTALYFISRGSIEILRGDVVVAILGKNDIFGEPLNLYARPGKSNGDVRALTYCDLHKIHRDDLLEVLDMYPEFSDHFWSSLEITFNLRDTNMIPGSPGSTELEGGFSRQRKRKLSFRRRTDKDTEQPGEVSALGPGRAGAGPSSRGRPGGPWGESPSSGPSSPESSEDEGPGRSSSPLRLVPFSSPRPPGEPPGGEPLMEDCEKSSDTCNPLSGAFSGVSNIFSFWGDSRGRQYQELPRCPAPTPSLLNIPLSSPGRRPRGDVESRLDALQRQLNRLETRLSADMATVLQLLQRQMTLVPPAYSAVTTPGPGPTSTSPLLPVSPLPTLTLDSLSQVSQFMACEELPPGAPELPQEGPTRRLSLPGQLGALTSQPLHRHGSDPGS

[3] = Oral bioavailability in CD rat at 1 mg/kg by LC/MS/MS analysis; type: ADME, organism-based; conditions: in vivo
[4] = Cmax in CD rat at 100 mg/kg by LC/MS/MS analysis; type: ADME, organism-based; design: dose 100 mg/kg; conditions: in vivo
[5] = AUC in CD rat at 300 mg/kg by LC/MS/MS analysis; type: ADME, organism-based; design: dose 300 mg/kg; conditions: plasma
[6] = Cmax in CD rat at 30 mg/kg by LC/MS/MS analysis; type: ADME, organism-based; design: dose 30 mg/kg; conditions: in vivo
[7] = Cmax in CD rat at 300 mg/kg by LC/MS/MS analysis; type: ADME, organism-based; design: dose 300 mg/kg; conditions: in vivo
[8] = Solubility of the compound in neutral aqueous media at pH 6.8; type: physicochemical
[9] = Clearance in CD rat at 0.5 mg/kg, iv by LC/MS/MS analysis; type: ADME, organism-based; design: dose 0.5 mg/kg, route intravenous; conditions: in vivo
[10] = AUC in CD rat at 10 mg/kg by LC/MS/MS analysis; type: ADME, organism-based; design: dose 10 mg/kg; conditions: plasma
[11] = Cmax in CD rat at 5 mg/kg by LC/MS/MS analysis; type: ADME, organism-based; design: dose 5 mg/kg; conditions: in vivo
[12] = AUC in CD rat at 30 mg/kg by LC/MS/MS analysis; type: ADME, organism-based; design: dose 30 mg/kg; conditions: plasma
[13] = Cmax in CD rat at 10 mg/kg by LC/MS/MS analysis; type: ADME, organism-based; design: dose 10 mg/kg; conditions: in vivo
[14] = Intrinsic clearance in CD rat microsomes; type: ADME, Microsome
[15] = AUC in CD rat at 100 mg/kg by LC/MS/MS analysis; type: ADME, organism-based; design: dose 100 mg/kg; conditions: plasma
Hepatitis C virus [16] = experiment: Antiviral activity against Hepatitis C virus genotype 1b infected in human HuH7 cells after 48 hrs by luciferase reporter gene assay; type: functional, organism-based, Hepacivirus hominis; conditions: Huh-7, 48 h
[17] = Volume of distribution in CD rat at 0.5 mg/kg, iv by LC/MS/MS analysis; type: ADME, organism-based; design: dose 0.5 mg/kg, route intravenous; conditions: in vivo
Hepatitis C virus [18] = experiment: Antiviral activity against Hepatitis C virus genotype 1a infected in human HuH7 cells after 48 hrs by luciferase reporter gene assay; type: functional, organism-based, Hepacivirus hominis; conditions: subtype 1a, Huh-7, 48 h
[19] = AUC in CD rat at 1 mg/kg, po by LC/MS/MS analysis; type: ADME, organism-based; design: dose 1 mg/kg, route oral; conditions: plasma
[20] = Half life in CD rat at 0.5 mg/kg, iv by LC/MS/MS analysis; type: ADME, organism-based; design: dose 0.5 mg/kg, route intravenous; conditions: in vivo
[21] = biological target: T1, Voltage-gated inwardly rectifying potassium channel KCNH2; experiment: Inhibition of human ERG expressed in CHO cells
[22] = Stability of the compound in water assessed as 5-((2-(2,3-Difluorophenyl)-5H-imidazo[4,5-d]pyridazin-5-yl)-methyl)-3-(4-propoxy-2-(trifluoromethyl)phenyl)isoxazole level at 1 uM at pH 7 up to 60 mins by LC/MS/MS analysis; type: physicochemical; conditions: buffer, pH 7, 1 h
[23] = Half life in blood (unknown origin) assessed as 5-((2-(2,3-Difluorophenyl)-5H-imidazo[4,5-d]pyridazin-5-yl)-methyl)-3-(4-propoxy-2-(trifluoromethyl)phenyl)isoxazole level; type: ADME, tissue-based
[24] = Oral bioavailability in CD rat at 5 mg/kg by LC/MS/MS analysis; type: ADME, organism-based; conditions: in vivo
[25] = Stability in rat microsomes assessed as 5-((2-(2,3-Difluorophenyl)-5H-imidazo[4,5-d]pyridazin-5-yl)-methyl)-3-(4-propoxy-2-(trifluoromethyl)phenyl)isoxazole level at 0.5 uM by LC/MS/MS analysis; type: ADME, Microsome
Hepatocyte [26] = experiment: Stability in rat hepatocytes assessed as 5-((2-(2,3-Difluorophenyl)-5H-imidazo[4,5-d]pyridazin-5-yl)-methyl)-3-(4-propoxy-2-(trifluoromethyl)phenyl)isoxazole level at 0.5 uM by LC/MS/MS analysis; type: ADME, cell-based
[27] = Stability of the compound in blood (unknown origin) assessed as 5-((2-(2,3-Difluorophenyl)-5H-imidazo[4,5-d]pyridazin-5-yl)-methyl)-3-(4-propoxy-2-(trifluoromethyl)phenyl)isoxazole level at 1 uM up to 60 mins by LC/MS/MS analysis; type: ADME, tissue-based; conditions: 1 h
[28] = Solubility of the compound in phosphate buffered saline at pH 7.4 after 1 hr by chemiluminescence nitrogen detection assay; type: physicochemical
[29] = Stability of the compound in water assessed as 5-((2-(2,3-Difluorophenyl)-5H-imidazo[4,5-d]pyridazin-5-yl)-methyl)-3-(4-propoxy-2-(trifluoromethyl)phenyl)isoxazole level at 1 uM at pH 2 up to 60 mins by LC/MS/MS analysis; type: physicochemical; conditions: buffer, pH 2, 1 h
Hepatocyte [30] = experiment: Half life in rat hepatocytes assessed as 5-((2-(2,3-Difluorophenyl)-5H-imidazo[4,5-d]pyridazin-5-yl)-methyl)-3-(4-propoxy-2-(trifluoromethyl)phenyl)isoxazole level; type: ADME, cell-based
[31] = Oral bioavailability in beagle dog at 5 mg/kg by LC/MS/MS analysis; type: ADME, organism-based, Canis lupus familiaris; conditions: in vivo
[32] = AUC in CD rat at 1000 mg/kg by LC/MS/MS analysis; type: ADME, organism-based; design: dose 1000 mg/kg; conditions: plasma

- AUC [1]: 8000 ng·h/mL
- bioavailability [3]: 78%
- Cmax [4]: 7600 ng/mL
- AUC [5]: 280000 ng·h/mL
- Cmax [6]: 2800 ng/mL
- Cmax [7]: 27300 ng/mL
- solubility [8]: 9 µg/mL (≈ 16.8 µM)
- clearance [9]: 9 mL/min/kg
- AUC [10]: 24000 ng·h/mL
- Cmax [11]: 1100 ng/mL
- AUC [12]: 24000 ng·h/mL
- Cmax [13]: 2700 ng/mL
- CLint scaled [14]: 22 mL/min/kg
- AUC [15]: 69000 ng·h/mL
- EC50 (Hepatitis C virus [16]): 16 nM
- Vd [17]: 2.04 L/kg
- EC50 (Hepatitis C virus [18]): 160 nM
- AUC [19]: 1500 ng·h/mL
- half-life [20]: 3.14 h
Structure (SMILES): Fc1cccc(-c2nc3cnn(Cc4ccc(-c5ccc(C(F)(F)F)cc5C(F)(F)F)nc4)cc-3n2)c1F
- EC50 [2]: 7940 nM

Structure (SMILES): Fc1ccccc1-c1nc2ccn(Cc3cc(-c4ccc(C(F)(F)F)cc4C(F)(F)F)no3)cc-2n1
- IC50 [21]: 794 nM

- EC50 (Hepatitis C virus [16]): 300 nM
Structure (SMILES): Fc1cccc(-c2nc3cnn(Cc4cc(-c5ccc(C(F)(F)F)nc5)no4)cc-3n2)c1F

- EC50 (Hepatitis C virus [16]): 90 nM
- EC50 (Hepatitis C virus [18]): 300 nM
Structure (SMILES): COc1ccc(-c2cc(Cn3cc4nc(-c5cccc(F)c5F)nc-4cn3)on2)cc1

- EC50 (Hepatitis C virus [16]): 80 nM
- EC50 (Hepatitis C virus [18]): 900 nM
Structure (SMILES): CC(c1cc(-c2ccc(C(F)(F)F)cc2C(F)(F)F)no1)n1cc2nc(-c3cccc(F)c3F)nc-2cn1 (racemic)

- Stability [22]: Stable
- t1/2 [23]: 0.25 h
- bioavailability [24]: 80%
- Stability [25]: Stable
- Stability (Hepatocyte [26]): Stable
- Stability [27]: Stable
- solubility kinetic at 1 h [28]: 17 µM (≈ 9.75 µg/mL)
- Stability [29]: Stable
- t1/2 (Hepatocyte [30]): 0.25 h
- EC50 (Hepatitis C virus [16]): 3 nM
- EC50 (Hepatitis C virus [18]): 21 nM
- bioavailability [31]: 51%
- AUC [32]: 118000 ng·h/mL
Structure (SMILES): CCCOc1ccc(-c2cc(C(C(=O)OC)n3cc4nc(-c5cccc(F)c5F)nc-4cn3)on2)c(C(F)(F)F)c1 (centres undefined)

- EC50 (Hepatitis C virus [16]): 1500 nM
- EC50 (Hepatitis C virus [18]): 5400 nM
Structure (SMILES): CC(C)(c1cc(-c2ccc(C(F)(F)F)cc2C(F)(F)F)no1)n1cc2nc(-c3cccc(F)c3F)nc-2cn1

- EC50 (Hepatitis C virus [16]): 52000 nM
- EC50 (Hepatitis C virus [18]): 16000 nM
Structure (SMILES): Fc1cccc(-c2nc3cnn(CCCc4ccc(C(F)(F)F)cc4C(F)(F)F)cc-3n2)c1F

- EC50 (Hepatitis C virus [16]): 10 nM
- EC50 (Hepatitis C virus [18]): 80 nM
Structure (SMILES): CCCCc1ccc(-c2cc(Cn3cc4nc(-c5cccc(F)c5F)nc-4cn3)on2)cc1

- EC50 (Hepatitis C virus [16]): 5000 nM
Structure (SMILES): Fc1cccc(F)c1-c1nc2cnn(Cc3cc(-c4ccc(C(F)(F)F)cc4C(F)(F)F)no3)cc-2n1

- EC50 (Hepatitis C virus [16]): 18 nM
- EC50 (Hepatitis C virus [18]): 120 nM
Structure (SMILES): Fc1cccc(-c2nc3cnn(Cc4ccc(-c5ccc(C(F)(F)F)cc5C(F)(F)F)cc4)cc-3n2)c1F

- EC50 (Hepatitis C virus [16]): 1750 nM
Structure (SMILES): FC(F)(F)c1ccc(-c2cc(Cn3cc4nc(-c5cccs5)nc-4cn3)on2)c(C(F)(F)F)c1

- EC50 (Hepatitis C virus [16]): 110 nM
- EC50 (Hepatitis C virus [18]): 3700 nM
Structure (SMILES): Fc1ccccc1-c1nc2cnn(Cc3cc(-c4ccc(C(F)(F)F)cc4C(F)(F)F)no3)cc-2n1

- EC50 (Hepatitis C virus [16]): 170 nM
Structure (SMILES): Fc1ccccc1-c1nc2cnn(Cc3cc(-c4ccc(Cl)cc4)no3)cc-2n1

- EC50 (Hepatitis C virus [16]): 23 nM
- EC50 (Hepatitis C virus [18]): 110 nM
Structure (SMILES): Cc1ccc(-c2cc(Cn3cc4nc(-c5cccc(F)c5F)nc-4cn3)on2)cc1
